# Source: patent publication EP0086092A2, “Antifungal compositions” (priority 1982, dated 1983)
# Marks after values point to notes of the source that are not given here.
# System: Candida albicans B 311
# Experiment: disc diffusion, zone of inhibition on seeded agar plates
# Type: cell-based
# Settings: for Zone Size: Table I, glucose as carbon source, composition of 1 unit by weight aculeacin A + 5 units fatty acid; for Zone Size / Zone Size YNB agar: YNB agar; for Zone Size / Zone Size Sabouarud Agar / Zone Size YNB agar / Zone Size B 311: 16-18 h; for Zone Size / Zone Size B 311: 28-37°C; for Zone Size Sabouarud Agar / Zone Size YNB agar: Table II, 37°C; for Zone Size Sabouarud Agar: Sabouarud dextrose agar; for Zone Size YNB agar: lysine; for increase in the intrinsic activity of aculeacin A: Table II test
# Method: The antifungal activity of aculeacin A and the compositions of aculeacin A and fatty acids was measured by disc diffusion.
# The effects of a number of fatty acids on the antifungal activity of aculeacin A were determined by utilizing seeded plates of Candida albicans B 311 in yeast nitrogen base (YNB) agar (Difco) with glucose as the carbon source. A composition containing one unit by weight of aculeacin A and 5 units of fatty acid or the sodium salt thereof was spotted on the seeded plates and the size of the zone of inhibition after 16-18 hours incubation at 28-37 °C was measured.
# Additional fatty acids were tested to determine , if they increased the intrinsic activity of aculeacin A against C. albicans B 311 utilizing seeded plates of YNB agar (Difco) with lysine as the carbon source and seeded plates of Sabouarud dextrose agar (Difco). Compositions containg one µg of aculeacin A and various amounts of the fatty acid was spotted on the seeded plates and the size of the zone of inhibition after 16-18 hours incubation at 37 °C was measured.
# The antifungal effects of compositions containing a single amount of oleic acid as the sodium salt while varying the amounts of aculeacin A were determined by utilizing seeded plates of Candida albicans B 311 in Sabouarud dextrose agar and measuring the zone of inhibition after 16-18 hours incubation at 28-37°C.
# The antifungal effects of compositions containing a single amount of aculeacin A while varying the amounts. of oleic acid as the sodium salt were determined by utilizing seeded plates of Candida albicans strains B 311, BC 759 and B 3153A and measuring the zone of inhibition after 16-18 hours at 28-37°C. This test was also performed with linoleic acid and linolenic acid.
# The seeded plates of Candida albicans strains B 311, BC 759, and B 3153A were prepared by inoculating 50 ml of trypticase soy broth (BBL) with one ml of the preserved frozen culture and incubating the inoculum at 37°C for 7 hours on a rotary shaker. Two milliliters of this culture were used to inoculate one liter of Sabouarud dextrose agar (Difco) at 50°C and 15 milliliters of the resultant medium poured into 150 mm petri-dishes.
# [1] = aculeacin A 0 µg, fatty acid 500 µg alone
# [2] = aculeacin A 0 µg, fatty acid 1000 µg alone
# [3] = aculeacin A 0 µg, fatty acid 2000 µg alone
# [4] = composition of aculeacin A 1 µg + fatty acid 500 µg
# [5] = composition of aculeacin A 1 µg + fatty acid 1000 µg
# [6] = composition of aculeacin A 1 µg + fatty acid 2000 µg
# [7] = aculeacin A 0 µg, fatty acid 50 µg alone
# [8] = aculeacin A 0 µg, fatty acid 100 µg alone
# [9] = aculeacin A 0 µg, fatty acid 200 µg alone
# [10] = composition of aculeacin A 1 µg + fatty acid 50 µg
# [11] = composition of aculeacin A 1 µg + fatty acid 100 µg
# [12] = composition of aculeacin A 1 µg + fatty acid 200 µg
# [13] = aculeacin A 0 µg, fatty acid 250 µg alone
# [14] = composition of aculeacin A 1 µg + fatty acid 250 µg
# [15] = Tables IV-b, IV-c, aculeacin A 0 µg, fatty acid 28.1 µg alone
# [16] = Tables IV-b, IV-c, aculeacin A 0 µg, fatty acid 56.2 µg alone
# [17] = Tables IV-b, IV-c, aculeacin A 0 µg, fatty acid 112.5 µg alone
# [18] = Tables IV-b, IV-c, aculeacin A 0.625 µg + fatty acid 28.1 µg
# [19] = Tables IV-b, IV-c, aculeacin A 0.625 µg + fatty acid 56.2 µg
# [20] = Tables IV-b, IV-c, aculeacin A 0.625 µg + fatty acid 112.5 µg
compound,measurement,setting,value
CCCCCCCCCC(=O)O [Decanoic Acid],Zone Size,,17 mm
γ-Linoleic Acid,Zone Size Sabouarud Agar,[1],0 mm
same,Zone Size Sabouarud Agar,[2],0 mm
same,Zone Size Sabouarud Agar,[3],0 mm
same,Zone Size Sabouarud Agar,[4],20 mm
same,Zone Size Sabouarud Agar,[5],24 mm
same,Zone Size Sabouarud Agar,[6],25 mm
same,Zone Size YNB agar,[1],0 mm
same,Zone Size YNB agar,[2],0 mm
same,Zone Size YNB agar,[3],0 mm
same,Zone Size YNB agar,[4],14 mm
same,Zone Size YNB agar,[5],15 mm
same,Zone Size YNB agar,[6],22 mm
same,increase in the intrinsic activity of aculeacin A,composition of 2000 units by weight fatty acid to one unit aculeacin A,surprising increase in the intrinsic activity of aculeacin A
CCCCCCCC(=O)O [Caprylic Acid],Zone Size,,16 mm
Homo-γ-Linoleic Acid,Zone Size Sabouarud Agar,[7],0 mm
same,Zone Size Sabouarud Agar,[8],0 mm
same,Zone Size Sabouarud Agar,[9],0 mm
same,Zone Size Sabouarud Agar,[10],15 mm
same,Zone Size Sabouarud Agar,[11],15 mm
same,Zone Size Sabouarud Agar,[12],15 mm
same,Zone Size YNB agar,[7],0 mm
same,Zone Size YNB agar,[8],0 mm
same,Zone Size YNB agar,[9],0 mm
same,Zone Size YNB agar,[10],15* mm
same,Zone Size YNB agar,[11],15* mm
same,Zone Size YNB agar,[12],17* mm
CCCCCCCCCCCC(=O)O [Lauric Acid],Zone Size,,22 mm
CCCCCCCCCCC(O)C(=O)O (stereo not drawn) [α-Hydroxy Lauric Acid],Zone Size Sabouarud Agar,[13],Trace
same,Zone Size Sabouarud Agar,[1],10 (hazy) mm
same,Zone Size Sabouarud Agar,[2],10 (hazy) mm
same,Zone Size Sabouarud Agar,[14],15 mm
same,Zone Size Sabouarud Agar,[4],15 mm
same,Zone Size Sabouarud Agar,[5],20 mm
same,Zone Size YNB agar,[13],Trace
same,Zone Size YNB agar,[1],Trace
same,Zone Size YNB agar,[2],Trace
same,Zone Size YNB agar,[14],20 mm
same,Zone Size YNB agar,[4],24 mm
same,Zone Size YNB agar,[5],25 mm
CCCCCCCCCCCCCC(=O)O [Myristic Acid],Zone Size,,16 mm
CCCCC/C=C\C/C=C\CCCCCCCC(=O)O [Linoleic Acid],Zone Size,,23 mm
same,Zone Size B 311,"Table IV-b, aculeacin A 0 µg, fatty acid 225 µg alone",Trace
same,Zone Size B 311,"Table IV-b, aculeacin A 0.625 µg + fatty acid 225 µg",19 mm
same,Zone Size B 311,[15],0 mm
same,Zone Size B 311,[16],0 mm
same,Zone Size B 311,[17],0 mm
same,Zone Size B 311,[18],22 mm
same,Zone Size B 311,[19],22 mm
same,Zone Size B 311,[20],21 mm
CCCCCCCCCCCCCCCCCCCCCC(=O)O [Behenic Acid],Zone Size Sabouarud Agar,[13],0 mm
same,Zone Size Sabouarud Agar,[1],0 mm
same,Zone Size Sabouarud Agar,[2],0 mm
same,Zone Size Sabouarud Agar,[14],15 mm
same,Zone Size Sabouarud Agar,[4],14 mm
same,Zone Size Sabouarud Agar,[5],20 mm
same,Zone Size YNB agar,[13],0 mm
same,Zone Size YNB agar,[1],0 mm
same,Zone Size YNB agar,[2],0 mm
same,Zone Size YNB agar,[14],14 mm
same,Zone Size YNB agar,[4],14 mm
same,Zone Size YNB agar,[5],15 mm
CCCCC/C=C/C/C=C/CCCCCCCC(=O)O [Linoelaidic Acid],Zone Size Sabouarud Agar,[13],0 mm
same,Zone Size Sabouarud Agar,[1],0 mm
same,Zone Size Sabouarud Agar,[2],0 mm
same,Zone Size Sabouarud Agar,[14],20* mm
same,Zone Size Sabouarud Agar,[4],20* mm
same,Zone Size Sabouarud Agar,[5],24* mm
same,Zone Size YNB agar,[13],0 mm
same,Zone Size YNB agar,[1],0 mm
same,Zone Size YNB agar,[2],0 mm
same,Zone Size YNB agar,[14],26 mm
same,Zone Size YNB agar,[4],17 mm
same,Zone Size YNB agar,[5],16 mm
same,increase in the intrinsic activity of aculeacin A,composition of 250 units by weight fatty acid to one unit aculeacin A,surprising increase in the intrinsic activity of aculeacin A
CC/C=C\C/C=C\C/C=C\CCCCCCCC(=O)O [Linolenic Acid],Zone Size,,22 mm
same,Zone Size B 311,[15],0 mm
same,Zone Size B 311,[16],0 mm
same,Zone Size B 311,[17],0 mm
same,Zone Size B 311,[18],20 mm
same,Zone Size B 311,[19],19 mm
same,Zone Size B 311,[20],19 mm
CCCCCC/C=C/CCCCCCCCCC(=O)O [Vaccinic Acid],Zone Size Sabouarud Agar,[1],0 mm
same,Zone Size Sabouarud Agar,[2],0 mm
same,Zone Size Sabouarud Agar,[3],0 mm
same,Zone Size Sabouarud Agar,[4],25 mm
same,Zone Size Sabouarud Agar,[5],25 mm
same,Zone Size Sabouarud Agar,[6],26 mm
same,Zone Size YNB agar,[1],0 mm
same,Zone Size YNB agar,[2],0 mm
same,Zone Size YNB agar,[3],0 mm
same,Zone Size YNB agar,[4],17 mm
same,Zone Size YNB agar,[5],17 mm
same,Zone Size YNB agar,[6],17 mm
